In PMC8633584, “Patient mutations in human ATP:cob(I)alamin adenosyltransferase differentially affect its catalytic versus chaperone functions” (The Journal of Biological Chemistry, 2021):
Where a chain is given by its changes, count along the chain named. “And” between values parts separate entries of the source, which are not always exact repeats. Equal entries are not always repeated.

What was measured:
WT ATR = molecular target: T1, WT ATR (Homo sapiens, UniProt Q96EY8); test: Cob(II)alamin binding to ATR, UV-visible titration; design: The expression construct for recombinant human full-length and ΔN18 ATR in a pET-28b vector; His-tag (thrombin-cleavable) (N, cleaved yes); made in house; host or cells: E. coli BL21 (DE3); conditions: 1 mM ATP, anaerobic, buffer A
T1 sequence (Q96EY8 38-250 limits assumed): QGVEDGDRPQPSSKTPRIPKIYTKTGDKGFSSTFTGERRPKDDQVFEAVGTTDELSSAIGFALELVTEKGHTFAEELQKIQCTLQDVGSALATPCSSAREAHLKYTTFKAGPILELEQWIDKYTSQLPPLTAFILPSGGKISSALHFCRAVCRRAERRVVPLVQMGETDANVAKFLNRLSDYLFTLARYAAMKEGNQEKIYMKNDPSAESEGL
Method: (§1) Cob(II)alamin binding to ATR was determined by the titrations performed in the anaerobic chamber (<0.2 ppm O2 levels). The increasing concentrations of WT or mutant ATR were added to 30 μM cob(II)alamin and 1 mM ATP in buffer A. The concentration of bound cob(II)alamin was determined using Δε474nm = 5.1 cm^−1 mM^−1. The change in absorbance at 464 nm, corresponding to the base-off ATR-bound cob(II)alamin was plotted against ATR concentration, and the data were analyzed using Equation 1, as described above.

R190C ATR [1] = molecular target: T2, R190C ATR (Homo sapiens, UniProt Q96EY8, R190C); test: Cob(II)alamin binding to ATR, UV-visible titration; design: The expression construct for recombinant human full-length and ΔN18 ATR in a pET-28b vector; His-tag (thrombin-cleavable) (N, cleaved yes); made in house; host or cells: E. coli BL21 (DE3); conditions: 1 mM ATP, anaerobic, buffer A
T2 sequence (Q96EY8 38-250 R190C limits assumed): T1 sequence (Q96EY8 38-250 limits assumed) with R153C
Method: as §1

E193K ATR [2] = molecular target: T3, E193K ATR (Homo sapiens, UniProt Q96EY8, E193K); test: Cob(II)alamin binding, separation of unbound ligand with 10 kDa cut-off filter; design: WT and the R190C variants of ΔN18-ATR and full-length E193K ATR were purified; His-tag (thrombin-cleavable) (N, cleaved yes); made in house; host or cells: E. coli BL21 (DE3)
T3 sequence (Q96EY8 38-250 E193K limits assumed): T1 sequence (Q96EY8 38-250 limits assumed) with E156K
Method: Although we were unable to determine the KM for cob(II)alamin because of technical limitations of the steady-state assay, the KD for this substrate was determined. In the presence of ATP, cob(II)alamin binds to ATR in a four-coordinate base-off conformation ([17]), which is signaled by a blue shift in the absorption maximum from 474 to 464 nm and an increase in absorption intensity (Fig. 2C). […] In contrast, spectral changes in cob(II)alamin were not observed with E193K ATR (Fig. 2D), indicating either greatly weakened affinity or the presence of bound five-coordinate cob(II)alamin. […] Although some cob(II)alamin (18 μM) was present in the filtrate, the remainder was bound to ATR (Fig. 2D).

R190H ATR [3] = molecular target: T4, R190H ATR (Homo sapiens, UniProt Q96EY8, R190H); test: Cob(II)alamin binding to ATR, UV-visible titration; conditions: 1 mM ATP, anaerobic, buffer A
T4 construct: The expression construct for recombinant human full-length and ΔN18 ATR in a pET-28b vector; His-tag (thrombin-cleavable) (N, cleaved yes); made in house; host or cells: E. coli BL21 (DE3)
T4 sequence (Q96EY8 38-250 R190H limits assumed): T1 sequence (Q96EY8 38-250 limits assumed) with R153H
Method: as §1

E193K ATR [4] = molecular target: T3, E193K ATR; test: EPR spectroscopy of cob(II)alamin with ATR and ATP; format: binding; design: WT and the R190C variants of ΔN18-ATR and full-length E193K ATR were purified; His-tag (thrombin-cleavable) (N, cleaved yes); made in house; host or cells: E. coli BL21 (DE3); conditions: E193K ATR 500 μM trimer, cob(II)alamin 300 μM, 5 mM ATP, 100 K
Method: (§2) EPR spectra were recorded on a Bruker EMX 300 equipped with a Bruker 4201 cavity and a Varian liquid nitrogen cryostat. The temperature was controlled by an Oxford Instruments ITC4 temperature controller. The samples were prepared inside an anaerobic chamber (O2 < 0.3 ppm) and contained 300 μM cob(II)alamin, 5 mM ATP and WT ATR (200 μM trimer) or 500 μM (trimer) E193K, R190C or R190H ATR in 50 mM Hepes pH 7.5, 150 mM KCl, 2 mM MgCl2, 2 mM TCEP, and 10% glycerol. The following instrument settings were employed: microwave frequency, 9.27 GHz; power, 2.0 mW; modulation amplitude, 1.0 mT; modulation frequency, 100 kHz; temperature, 100 K. Five scans were acquired for each sample. A buffer spectrum was subtracted from the sample spectrum. The EPR simulations were performed using the EasySpin program ([36]).

R190H ATR [5] = molecular target: T4, R190H ATR; test: EPR spectroscopy of cob(II)alamin with ATR and ATP; format: binding; conditions: R190H ATR 500 μM trimer, cob(II)alamin 300 μM, 5 mM ATP, 100 K
Method: as §2

R190C ATR [6] = molecular target: T2, R190C ATR; test: EPR spectroscopy of cob(II)alamin with ATR and ATP; format: binding; design: The expression construct for recombinant human full-length and ΔN18 ATR in a pET-28b vector; His-tag (thrombin-cleavable) (N, cleaved yes); made in house; host or cells: E. coli BL21 (DE3); conditions: R190C ATR 500 μM trimer, cob(II)alamin 300 μM, 5 mM ATP, 100 K
Method: as §2

C/C1=C2/[N-][C@H]([C@H](CC(N)=O)[C@@]2(C)CCC(=O)NC[C@@H](C)OP(=O)([O-])O[C@H]2[C@@H](O)[C@@H](n3cnc4cc(C)c(C)cc43)O[C@@H]2CO)[C@]2(C)N=C(/C(C)=C3N=C(/C=C4N=C1[C@@H](CCC(N)=O)C\4(C)C)[C@@H](CCC(N)=O)[C@]\3(C)CC(N)=O)[C@@H](CCC(N)=O)[C@]2(C)CC(N)=O.[Co+2] [cob(II)alamin]
Kd (WT ATR): 0.08 ± 0.01 µM | Kd (R190C ATR [1]): 46 ± 10 µM | cob(II)alamin in the filtrate (unbound) (E193K ATR [2]; E193K ATR 1.5 mM): 18% | cob(II)alamin present in the filtrate (unbound) (E193K ATR [2]; cob(II)alamin 100 μM, E193K ATR 500 μM trimer, ATP 2 mM): 18 µM | Kd (R190H ATR [3]): 38.5 ± 16.5 µM | five-coordinate base-off cob(II)alamin, share of EPR spectrum (E193K ATR [4]): 76% and ~80% | free base-on cob(II)alamin, share of EPR spectrum (E193K ATR [4]): 24% and 20% | four-coordinate base-off cob(II)alamin, share of EPR spectrum (R190H ATR [5]): 75% | unbound five-coordinate base-on cob(II)alamin, share of EPR spectrum (R190H ATR [5]): 25% | four-coordinate base-off cob(II)alamin, share of EPR spectrum (R190C ATR [6]): 75% | unbound five-coordinate base-on cob(II)alamin, share of EPR spectrum (R190C ATR [6]): 25%
